Details: 303.16 K, Liquid, Vibrating tube method

CCCCCC(=O)OCC(COC(=O)CCCCC)(COC(=O)CCCCC)COC(=O)CCCCC [pentaerythritol tetrahexanoate]
Details | mass density [kg/m3]
380.8 kPa | 988.5
382.9 kPa | 988.7
385.3 kPa | 988.6
387.4 kPa | 988.6
454.3 kPa | 988.6
457.1 kPa | 988.6
461.3 kPa | 988.6
465.1 kPa | 988.6
468 kPa | 988.6
470.8 kPa | 988.7
474.1 kPa | 988.6
478 kPa | 988.6
481.2 kPa | 988.6
484.7 kPa | 988.7
488.4 kPa | 988.7
491.7 kPa | 988.7
495.5 kPa | 988.7
498.8 kPa | 988.7
502.4 kPa | 988.7
505.6 kPa | 988.6
509.2 kPa | 988.8
513.8 kPa | 988.7
517.4 kPa | 988.7
521.2 kPa | 988.6
525.6 kPa | 988.7
529.6 kPa | 988.8
534.1 kPa | 988.7
537.9 kPa | 988.6
542.3 kPa | 988.9
546.9 kPa | 988.7
550.9 kPa | 988.7
555.3 kPa | 988.8
559.5 kPa | 988.8
564.3 kPa | 988.8
569 kPa | 988.8
574.4 kPa | 988.9
692 kPa | 988.8
698.5 kPa | 988.8
706.1 kPa | 988.8
712.5 kPa | 988.8
719.3 kPa | 988.9
727 kPa | 988.7
734.3 kPa | 988.8
741.2 kPa | 988.8
748.1 kPa | 988.8
756.7 kPa | 988.8
763.8 kPa | 988.9
771.6 kPa | 988.9
779.1 kPa | 988.8
788.5 kPa | 988.9
796.3 kPa | 988.8
804.1 kPa | 988.8
811.9 kPa | 988.9
821.6 kPa | 988.9
829.8 kPa | 988.8
848 kPa | 988.8
856.6 kPa | 988.9
864.9 kPa | 989
1404 kPa | 989.4
1416.2 kPa | 989.4
1431.1 kPa | 989.2
1443.8 kPa | 989.3
1456.5 kPa | 989.3
1642.7 kPa | 989.5
1657.5 kPa | 989.4
1672.3 kPa | 989.4
1686.8 kPa | 989.3
1704.7 kPa | 989.4
1818.6 kPa | 989.6
1834.9 kPa | 989.6
1940.6 kPa | 989.6
1957.6 kPa | 989.6
1975.3 kPa | 989.7
1996.3 kPa | 989.5
2014.2 kPa | 989.6
2035.9 kPa | 989.6
2053.6 kPa | 989.7
2072.3 kPa | 989.7
2129.6 kPa | 989.6
2148.3 kPa | 989.7
2190 kPa | 989.9
2209.4 kPa | 989.7
2272.4 kPa | 989.7
4203.4 kPa | 991.1
4236.8 kPa | 991
4264.7 kPa | 991.2
4292.6 kPa | 991.1
4320.1 kPa | 991.1
4352.9 kPa | 991.2
4379.7 kPa | 991.1
4406.5 kPa | 991.2
4438.4 kPa | 991.1
4464.5 kPa | 991.2
4490.5 kPa | 991.3
4516.1 kPa | 991.2
4546.4 kPa | 991.3
4570.9 kPa | 991.3
4594.9 kPa | 991.4
4622.1 kPa | 991.2
4643.9 kPa | 991.3
4664.2 kPa | 991.3
4683 kPa | 991.5
4704.7 kPa | 991.4
4723 kPa | 991.4
4740.8 kPa | 991.3
4757.6 kPa | 991.4
4774.9 kPa | 991.4
4794.3 kPa | 991.6
4810.9 kPa | 991.4
4827 kPa | 991.4
4842.8 kPa | 991.5
4861.3 kPa | 991.4
4908.5 kPa | 991.5
5374.3 kPa | 991.8
5390.7 kPa | 991.8
5411 kPa | 991.8
5427.2 kPa | 991.8
5447.1 kPa | 991.9
5464.4 kPa | 991.8
5481.4 kPa | 991.9
5498.1 kPa | 991.8
5518.7 kPa | 991.9
5591.9 kPa | 992
5609.7 kPa | 992
5627.2 kPa | 991.9
5647.7 kPa | 991.9
5665.4 kPa | 992
5875.7 kPa | 992.1
5894 kPa | 992.1
5931.3 kPa | 992.1
5953.6 kPa | 992.2
5972 kPa | 992.2
5990.6 kPa | 992.2
6012.9 kPa | 992.2
6031.6 kPa | 992.2
6050.3 kPa | 992.2
6072.9 kPa | 992.2
6111.5 kPa | 992.2
10602 kPa | 995.1
10632 kPa | 995.1
10660 kPa | 995.1
10689 kPa | 995
10724 kPa | 995.1
10753 kPa | 995.2
10782 kPa | 995.1

Source: the NIST ThermoML archive (doi:10.1021/je060271a)
